Data as given in publication PMC9152706, “Identification of the target and mode of action for the prokaryotic nucleotide excision repair inhibitor ATBC” (Bioscience Reports, 2022).

Target: T1, UvrA (Escherichia coli, UniProt P0A698)
T1 construct: full-length, C-terminal flexible linker, AviTag, TEV site and His tag; Ni-NTA purified from E. coli (BL21 delta-uvrA delta-uvrB used for expression); unlabelled; homodimer
T1 sequence (P0A698 1-940): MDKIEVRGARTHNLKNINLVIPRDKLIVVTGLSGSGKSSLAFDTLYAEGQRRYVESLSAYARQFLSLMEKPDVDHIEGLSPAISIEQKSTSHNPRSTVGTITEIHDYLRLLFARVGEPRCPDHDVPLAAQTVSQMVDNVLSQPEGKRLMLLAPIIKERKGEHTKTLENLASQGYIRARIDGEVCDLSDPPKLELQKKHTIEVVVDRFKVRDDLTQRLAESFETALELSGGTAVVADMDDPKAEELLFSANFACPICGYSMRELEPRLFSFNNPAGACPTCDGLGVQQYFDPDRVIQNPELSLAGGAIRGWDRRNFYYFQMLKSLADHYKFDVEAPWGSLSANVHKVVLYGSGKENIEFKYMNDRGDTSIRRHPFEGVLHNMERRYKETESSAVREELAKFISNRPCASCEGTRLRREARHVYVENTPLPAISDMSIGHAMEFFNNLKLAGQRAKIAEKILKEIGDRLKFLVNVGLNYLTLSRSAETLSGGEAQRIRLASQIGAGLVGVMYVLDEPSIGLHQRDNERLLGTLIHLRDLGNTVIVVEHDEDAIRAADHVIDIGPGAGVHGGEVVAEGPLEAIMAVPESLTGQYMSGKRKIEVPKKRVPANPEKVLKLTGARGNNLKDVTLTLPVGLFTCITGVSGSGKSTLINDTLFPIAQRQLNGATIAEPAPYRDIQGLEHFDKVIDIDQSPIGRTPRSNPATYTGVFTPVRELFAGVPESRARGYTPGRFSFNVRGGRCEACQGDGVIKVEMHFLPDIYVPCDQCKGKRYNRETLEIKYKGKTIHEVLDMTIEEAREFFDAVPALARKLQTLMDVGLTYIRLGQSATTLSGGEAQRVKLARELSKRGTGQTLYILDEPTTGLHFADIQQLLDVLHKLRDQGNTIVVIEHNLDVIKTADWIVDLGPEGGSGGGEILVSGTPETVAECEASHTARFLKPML
Assay: NADH-linked ATPase assay (pyruvate kinase / lactate dehydrogenase)
Type: biochemical
Conditions: 50 µM ATBC, 5 min preincubation; 1 mM ATP; 50 mM Tris-HCl pH 7.5, 50 mM KCl, 10 mM MgCl2; room temperature; poorly soluble, nominal concentration; ATPase site proposed from docking

## Nc1nnc(-c2cc3c(ccc4ccccc43)oc2=O)s1 [ATBC, 2-(5-amino-1,3,4-thiadiazol-2-yl)benzo(f)chromen-3-one]
  % reduction of kcat at 50 μM: ~ 70%
